Data: ChEMBL document CHEMBL5674886, “GLUT4 expression and glucose transport in human induced pluripotent stem cell-derived cardiomyocytes” (PLoS One, 2019)

Legend:
Assay type in all cases: cell-based
[1] = target: T1, Solute carrier family 2, facilitated glucose transporter member 4 (Homo sapiens, UniProt P14672); assay: Inhibition of human GLUT4 expressed in CHO cells measured after 15 mins by cell-titer-Glo luminescent cell viability assay
T1 sequence (P14672 whole entry): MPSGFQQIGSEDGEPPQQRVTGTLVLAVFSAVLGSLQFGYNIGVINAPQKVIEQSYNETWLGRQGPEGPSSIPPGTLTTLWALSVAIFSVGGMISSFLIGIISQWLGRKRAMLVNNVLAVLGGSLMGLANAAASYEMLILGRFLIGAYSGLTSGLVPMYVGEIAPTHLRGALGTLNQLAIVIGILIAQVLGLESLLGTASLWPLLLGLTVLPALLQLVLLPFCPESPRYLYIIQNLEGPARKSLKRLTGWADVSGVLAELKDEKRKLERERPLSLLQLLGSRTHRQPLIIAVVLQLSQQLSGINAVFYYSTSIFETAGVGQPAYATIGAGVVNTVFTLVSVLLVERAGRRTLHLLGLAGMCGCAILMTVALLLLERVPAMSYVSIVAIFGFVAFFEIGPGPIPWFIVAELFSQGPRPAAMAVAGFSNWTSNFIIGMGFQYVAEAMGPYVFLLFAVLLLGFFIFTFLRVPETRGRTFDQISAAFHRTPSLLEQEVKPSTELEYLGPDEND

[2] = target: T2, Solute carrier family 2, facilitated glucose transporter member 1 (Mus musculus) (UniProt P17809); assay: Inhibition of GLUT1 in mouse 3T3-L1 cells assessed as reduction in insulin-stimulated [3H]-2-deoxyglucose uptake at 20 nM incubated for 30 mins by [3H]-2-deoxyglucose uptake assay
T2 sequence (whole entry): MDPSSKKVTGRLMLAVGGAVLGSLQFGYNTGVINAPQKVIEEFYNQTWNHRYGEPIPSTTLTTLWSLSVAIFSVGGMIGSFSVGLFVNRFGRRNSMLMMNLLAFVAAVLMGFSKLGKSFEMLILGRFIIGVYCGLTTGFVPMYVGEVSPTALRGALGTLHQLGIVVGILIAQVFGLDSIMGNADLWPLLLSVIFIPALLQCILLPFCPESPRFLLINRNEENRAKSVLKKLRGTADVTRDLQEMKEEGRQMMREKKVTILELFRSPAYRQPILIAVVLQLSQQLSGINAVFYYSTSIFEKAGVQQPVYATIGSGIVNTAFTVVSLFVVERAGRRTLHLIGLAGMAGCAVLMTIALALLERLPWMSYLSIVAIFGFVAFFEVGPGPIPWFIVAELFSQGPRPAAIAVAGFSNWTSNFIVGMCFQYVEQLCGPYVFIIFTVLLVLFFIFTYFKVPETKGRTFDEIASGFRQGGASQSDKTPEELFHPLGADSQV

[3] = target: T2, Solute carrier family 2, facilitated glucose transporter member 1 (Mus musculus); assay: Inhibition of GLUT1 in mouse 3T3-L1 cells assessed as reduction in insulin-stimulated [3H]-2-deoxyglucose uptake at 2 uM incubated for 30 mins by [3H]-2-deoxyglucose uptake assay

inhibition [2]: 25%
inhibition [3]: 100%
Structure (SMILES): Cc1c(NC(=O)c2cc(C(N)=O)nc3cc(F)ccc23)c(C(F)(F)F)nn1Cc1ccc(C#N)cc1 [BAY-876]
IC50 [1]: 200 nM
